Experimental data published in publication PMC4935745, “Synthesis and stereochemical determination of an antiparasitic pseudo-aminal type monoterpene indole alkaloid” (Journal of Natural Medicines, 2016).
Converted amounts (≈) assume the structure as drawn. Like-named read-outs stand apart in the source and are kept apart here.

Key:
Assay type in all cases: cell-based
[1] = Cytotoxicity against human MRC-5 cells; details: human
Method: (§1) Naturally occurring and synthetic compounds were tested for antimalarial activity against Plasmodium falciparum parasites (chloroquine-resistant K1 strain and chloroquine-susceptible FCR3 strain) and for cytotoxicity (against human MCR-5 cells), in comparison with the first-line antimalarial artemisinin.

[2] = system: Plasmodium falciparum (chloroquine-resistant K1 strain); experiment: In vitro antimalarial activity, K1 strain; details: for Selectivity index (SI) M/K: MRC-5/K1; for IC50: Plasmodium falciparum, K1, chloroquine-resistant strain
Method: as §1

[3] = system: Plasmodium falciparum (chloroquine-susceptible FCR3 strain); experiment: In vitro antimalarial activity, FCR3 strain; details: for Selectivity index (SI) M/F: MRC-5/FCR3; for IC50: Plasmodium falciparum, FCR3, chloroquine-sensitive strain, in vitro
Method: as §1

[4] = system: MRC-5 cells; experiment: Cytotoxicity against human MRC-5 cells; details: human MRC-5 cells
Method: as §1

[5] = MRC-5 cells, human MRC-5 cells, read-out: Cytotoxicity MRC-5 IC50

| IC50 ([2]; in vitro) | IC50 [3] | Antimalarial activity K1 IC50 ([2]; chloroquine-resistant strain, in vitro) | Compound | IC50 [1, 5] | Selectivity index (SI) M/K [2] | Selectivity index (SI) M/F [3] | Cytotoxicity MRC-5 IC50 [4] | Antimalarial activity against chloroquine-resistant P. falciparum (in words) ([2]; K1 strain, in vitro) | IC50 ([1]; Cytotoxicity MRC-5 IC50) |
| --- | --- | --- | --- | --- | --- | --- | --- | --- | --- |
| > 12.5 µg/mL |  |  | CC=C1CN2CCC1C(C)(O)c1[nH]c3ccccc3c1C2 (racemic) [Synthetic (±)-(15S*,16S*)-1, (±)-(15S*,16S*)-16-hydroxy-16,22-dihydroapparicine] | 33.3 µg/mL (≈ 118 µM) |  |  |  |  |  |
|  | 8.37 µg/mL (≈ 29.6 µM) | 9.00 µg/mL | CC=C1CN2CCC1C(C)(O)c1[nH]c3ccccc3c1C2 (single isomer, unassigned; (+)) [Synthetic (+)-(15S,16R)-1] |  | 5.7 | 6.1 | 51.2 µg/mL | moderate/weak antimalarial activity |  |
| 0.006 µg/mL (≈ 0.0213 µM) | 0.006 µg/mL (≈ 0.0213 µM) |  | C[C@@H]1CC[C@H]2[C@@H](C)C(=O)O[C@@H]3O[C@@]4(C)CC[C@@H]1[C@]32OO4 [Artemisinin, reference compound] |  | 7528 | 7528 |  |  | 45.2 µg/mL (≈ 160 µM) |

Continued, compound first:

| Compound | IC50 ([2]; in vitro) | IC50 [3] | Antimalarial activity K1 IC50 ([2]; chloroquine-resistant strain, in vitro) | IC50 [1, 5] | Selectivity index (SI) M/K [2] | Selectivity index (SI) M/F [3] | Cytotoxicity MRC-5 IC50 [4] | Antimalarial activity against chloroquine-resistant P. falciparum (in words) ([2]; K1 strain, in vitro) | IC50 ([1]; Cytotoxicity MRC-5 IC50) |
| --- | --- | --- | --- | --- | --- | --- | --- | --- | --- |
| C/C=C1/CNCC[C@@H]1[C@@](C)(O)c1cc2ccccc2[nH]1 (racemic) [(±)-(15S,16R)-37] | 8.98 µg/mL (≈ 33.2 µM) | > 12.5 µg/mL |  | 40.8 µg/mL (≈ 151 µM) | 4.5 | <3.3 |  |  |  |
| C/C=C(/COC(=O)C(C)(C)C)[C@H](CCN=[N+]=[N-])[C@@](C)(O)c1cc2ccccc2n1CO[Si](C)(C)C(C)(C)C [(−)-(15S,16R)-32] | > 12.5 µg/mL | > 12.5 µg/mL |  |  |  |  |  |  |  |
| C/C=C(/CO)[C@H](CCN=[N+]=[N-])[C@@](C)(O)c1cc2ccccc2[nH]1 [(−)-(15S,16R)-33] | 7.58 µg/mL (≈ 24.1 µM) | 7.17 µg/mL (≈ 22.8 µM) |  | 17.8 µg/mL (≈ 56.6 µM) | 2.3 | 2.5 |  |  |  |
| C/C=C(/COc1ncccc1[N+](=O)[O-])[C@H](CCN=[N+]=[N-])[C@@](C)(O)c1cc2ccccc2[nH]1 [(−)-(15S,16R)-34] | 8.04 µg/mL (≈ 18.4 µM) | > 12.5 µg/mL |  | > 100 µg/mL | >12.4 |  |  |  |  |
| C/C=C1/C(=O)O[C@H](C)[C@H]1CCN=[N+]=[N-] [(−)-(15S,16R)-39] | 9.38 µg/mL (≈ 48 µM) | > 12.5 µg/mL |  | 54 µg/mL (≈ 277 µM) | 5.8 | <4.3 |  |  |  |
